Data from US5204311A, “Ethanediimidic acid bis[(arylalkylidene)hydrazide] color-formers” (Minnesota Mining and Manufacturing Company, priority 1991, dated 1993).

Columns and labels:
Format in all cases: physicochemical
[1] = Stability in concentrated hydrochloric acid
[2] = Volatility: transfer from simulated donor sheet to receptor sheet; details: 71 ° C. overnight
From the text: The method utilized in the experiments to both define and evaluate the level of volatility was as follows. A single sheet piece of Grade #10 (20×12 cm) cheesecloth (AF & F., Item No. 588033, American Fiber and Finishing, Inc., Burlington, Mass.) was placed between a simulated donor sheet and a receptor sheet of a carbonless paper construction. The simulated donor sheet comprised a sheet of paper saturated with color-former of structure I, which was used to simulate a CB sheet with ruptured capsules. Pressure was then applied for 24 hours by placing 9 pounds of paper on top of the sheets, to simulate storage conditions of the paper packages. The formation of color on the receptor sheet, due to transfer of volatile color-former thereto, was used as an indication that the particular color-former was less than optimally desirable for carbonless paper constructions, i.e., was volatile. A compound was considered generally to be nonvolatile, within the meaning of the term as used herein to define the present invention and thus to define color-formers most acceptable for use in carbonless image transfer arrangements, if no color was formed after the simulated test was run for about 24 hours at 25° C. In some instances, if no color was formed after storage at room temperature (25° C.), successively higher temperatures were used, as for example 49° C., 60° C., and 71° C. […]

[3] = Color of coated CB sheet before imaging; details: encapsulated, before imaging (Experiments 6, 7)
Method: The capsule slurry (10 g) was added to 65 g of a 1.5% aqueous sodium alginate solution. The mixture was applied to a coated paper using a bar coater with a 3 mil gap. The coating was allowed to dry at room temperature.
A 2% solution of the compound 1 in the capsule fill solvent of diethyl phthalate, tributyl phosphate, and cyclohexane was encapsulated by the procedure described in Experiment 5 above. A coating mixture of 10.0 g of capsule slurry, 2.5 g of Dow-620 butadiene-styrene latex, and 62.5 g of 1.5% sodium alginate slurry was coated onto paper by the draw down procedure described above.
A 7.5% solution comprising 5.45% N-(5-octanoylamido-2-metylpentyl)dithiooxamide/N-(5-octanoylamido-4-methylpentyl)dithiooxamide (G') mixture and 2.05% N,N'-di(5-octanoylamido-2-methylpentyl)dithiooxamide/N-(5-octanoylamido-2- methylpentyl)-N'-(5-octanoylamido-4-methylpentyl)dithiooxamide/N,N'-(5-octanoylamido-2-methylpentyl)dithiooxamide (G) mixture in the fill solvent mixture of diethyl phthalate, tributyl phosphate, and cyclohexanone was encapsulated by the procedure described above. A coating mixture of 10.0 g of capsule slurry, 2.5 g of Dow 620 styrene-butadiene latex, and 62.5 g of 1.5% sodium alginate solution was coated onto paper by the draw down procedure described in Experiment 5 above. […]

[4] = Solubility in capsule fill solvents
Method: The encapsulation process requires the color-forming ligand be dissolved in a solvent or mixed solvents, because of the nature of the procedure. Formation of a microcapsule shell as by condensation of urea or melamine with an aldehyde such as formaldehyde or mixtures of aldehydes to form the capsule shell is carried out in an acidic aqueous medium and the color-former solution must be insoluble and unreactive to these reagents for the encapsulation to proceed. Solvents commonly used include tributyl phosphate, diethyl phthalate, and cyclohexane. […] As mentioned above, solubility of yellow color-formers exemplified by structure I in nonaqueous solvents such as those used in the encapsulation process may be increased by substituting alkyl, aryl, aralkyl, alkenyl, or such groups for the hydrogens on the various positions available in the structure I above.
(§1) This color observed on the CF sheet was yellow. […] Solubility in a solvent blend of tributyl phosphate, diethyl phthalate and cyclohexane (capsule solvents for preparing carbonless copy-paper) was >9% by weight. Thus the ligand is eminently suitable for encapsulation. The ligand is not volatile at 71 ° C. overnight.
Solubility in a solvent blend of tributyl phosphate, diethyl phthalate and cyclohexane (capsule solvents for preparing carbonless copy-paper) was 3% by weight. Thus the ligand is eminently suitable for encapsulation. The ligand is not volatile at 71 ° C. overnight.
*THE SOLUBILITY WAS DEEMED PREFERABLE IF IT WAS GREATER THAN 2% IN THE
FILL MIX AT ROOM TEMPERATURE FOR 3 DAYS. THE FILL MIX COMPRISED
TRIBUTYLPHOSPHATE (26.5%); DIETHYLPHTHALATE (17.6%); AND CYCLOHEXANE

[5] = Color formation with zinc salts (zinc rosinate)
Method: as §1
This color observed on the CF sheet was yellow.

stability in concentrated hydrochloric acid [1]: stable
volatility [2]: not volatile
color of coated (CB) sheet [3]: neutral in color
Solubility in a solvent blend of tributyl phosphate, diethyl phthalate and cyclohexane [4]: > 9 % by weight
solubility in encapsulation / capsule solvents (in words) [4]: very soluble in encapsulation solvents
Dye Solubility ([4]; 4320 min): > 9.0%
color formation when reacted with zinc rosinate [5]: does not form color
Structure (SMILES): CC(C)(C)c1cc(C=NN=C(N)C(N)=NN=Cc2cc(C(C)(C)C)cc(C(C)(C)C)c2O)c(O)c(C(C)(C)C)c1 [Compound 1, ethanediimidic acid bis[(3,5-di-t-butylsalicylidene)hydrazide]]
